Experiments:
[1] = target: T1, Human neurokinin (NK1) (Homo sapiens, UniProt P25103); experiment: Radioligand binding, human neurokinin NK1 membranes, filtration, [125I]-Substance P; settings: compound at 10 μM, [125I]-Substance P
T1 construct: purchased Perkin Elmer Biosignal
Method in brief: (§1)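 Membranes from cloned human receptors were incubated with compound and radioligand for 1 hour at room temperature. Bound ligand was collected on 0.3% PEI-soaked filters, washed with cold 50 mM Tris-HCl pH 7.4, and counted by scintillation. Percent inhibition was computed against DMSO totals and reference-ligand nonspecific wells.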

[2] = target: T2, Human melanin-concentrating hormone (MCH1) (Homo sapiens, UniProt Q99705); experiment: Radioligand binding, human melanin-concentrating hormone MCH1 membranes, FlashPlate, [125I]-S36057; settings: compound at 10 μM; for A6: inhibition of radioligand binding, human melanin-concentrating hormone (MCH1) / A6 radioligand binding, percentage inhibition: [125I]-S36057
T2 construct: purchased Perkin Elmer Biosignal
T2 sequence (Q99705 whole entry): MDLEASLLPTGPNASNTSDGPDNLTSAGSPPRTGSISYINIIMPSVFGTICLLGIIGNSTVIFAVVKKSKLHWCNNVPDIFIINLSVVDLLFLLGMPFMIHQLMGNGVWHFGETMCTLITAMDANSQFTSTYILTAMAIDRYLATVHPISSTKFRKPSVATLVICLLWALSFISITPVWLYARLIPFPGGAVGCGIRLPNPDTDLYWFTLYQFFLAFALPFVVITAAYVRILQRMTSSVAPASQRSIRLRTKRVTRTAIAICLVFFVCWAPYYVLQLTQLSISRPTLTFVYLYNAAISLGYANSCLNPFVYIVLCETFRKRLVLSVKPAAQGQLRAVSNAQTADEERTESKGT
Method in brief: (§2)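 Cloned human receptor membranes were coated onto FlashPlate wells and incubated with radioligand and compound (added from a 0.5 mM DMSO daughter plate) for 1 hour at room temperature in the dark. Scintillation counting gave percent inhibition, with DMSO defining total and reference ligand defining non-specific binding.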

[3] = target: T3, Human opioid (ORL1) (Homo sapiens, UniProt P41146); experiment: Radioligand binding, human opioid ORL1 membranes, FlashPlate, [125I]-Nociceptin; settings: compound at 10 μM, [125I]-Nociceptin
T3 construct: purchased Perkin Elmer Biosignal
T3 sequence (P41146 whole entry): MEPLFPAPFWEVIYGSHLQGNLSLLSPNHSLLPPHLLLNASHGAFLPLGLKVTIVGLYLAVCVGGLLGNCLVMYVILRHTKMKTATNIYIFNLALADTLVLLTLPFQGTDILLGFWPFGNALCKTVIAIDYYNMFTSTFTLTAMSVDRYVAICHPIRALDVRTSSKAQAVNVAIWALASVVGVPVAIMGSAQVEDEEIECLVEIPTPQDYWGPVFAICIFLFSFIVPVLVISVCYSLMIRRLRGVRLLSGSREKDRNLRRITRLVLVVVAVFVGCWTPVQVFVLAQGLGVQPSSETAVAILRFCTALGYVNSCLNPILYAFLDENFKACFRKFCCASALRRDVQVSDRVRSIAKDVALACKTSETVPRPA
Method in brief: as §2

[4] = target: T4, Mouse urotensin (mUR2) (Mus musculus, UniProt Q8VIH9); experiment: Radioligand binding, mouse urotensin mUR2 membranes, FlashPlate, [125I]-Urotensin II; settings: compound at 10 μM, [125I]-Urotensin II
T4 construct: purchased Perkin Elmer Biosignal
T4 sequence (Q8VIH9 1-385): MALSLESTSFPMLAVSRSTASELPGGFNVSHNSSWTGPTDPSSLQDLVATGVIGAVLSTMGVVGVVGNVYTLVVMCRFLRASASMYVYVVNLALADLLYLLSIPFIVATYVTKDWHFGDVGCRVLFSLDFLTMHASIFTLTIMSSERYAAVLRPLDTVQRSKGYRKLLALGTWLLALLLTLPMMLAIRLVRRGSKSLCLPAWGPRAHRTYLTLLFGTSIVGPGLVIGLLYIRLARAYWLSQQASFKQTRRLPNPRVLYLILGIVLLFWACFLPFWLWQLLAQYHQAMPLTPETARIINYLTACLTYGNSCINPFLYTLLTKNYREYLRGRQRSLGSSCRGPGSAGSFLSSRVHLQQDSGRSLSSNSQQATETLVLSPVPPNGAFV
Method in brief: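 Cloned mouse urotensin (mUR2) receptor membranes from Perkin Elmer Biosignal were immobilized in FlashPlate microplates using a proprietary coating. Each well got 19.5 μl buffer, then 0.5 μl of DMSO, reference ligand, or compound. Adding 5 μl of [125I]-Urotensin II, diluted to 5× final concentration in binding buffer, started binding. Plates were sealed with TopSeal-A and incubated 1 hour at room temperature in the dark. Wells were counted for 30 seconds each on a TopCount after a 60-second delay, and percentage inhibition was calculated.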

[5] = target: T5, Human melanocortin (MC5) (Homo sapiens, UniProt P33032); experiment: Radioligand binding, human melanocortin MC5 membranes, FlashPlate, [125I]-NDP-αMSH; settings: compound at 10 μM, [125I]-NDP-αMSH
T5 construct: purchased Perkin Elmer Biosignal
T5 sequence (P33032 whole entry): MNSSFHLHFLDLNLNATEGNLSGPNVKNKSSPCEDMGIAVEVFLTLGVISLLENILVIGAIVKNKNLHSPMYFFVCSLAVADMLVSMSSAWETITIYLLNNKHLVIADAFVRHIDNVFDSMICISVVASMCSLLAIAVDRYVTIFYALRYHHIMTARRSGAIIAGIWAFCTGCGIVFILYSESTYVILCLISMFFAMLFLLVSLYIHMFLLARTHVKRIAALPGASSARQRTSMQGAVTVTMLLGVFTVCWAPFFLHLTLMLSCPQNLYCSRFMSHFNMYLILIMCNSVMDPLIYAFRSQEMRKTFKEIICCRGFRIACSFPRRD
Method in brief: as §2

[6] = target: T6, Human neuropeptide Y (NPY-Y1) (Homo sapiens, UniProt P25929); experiment: Radioligand binding, human neuropeptide Y NPY-Y1 membranes, FlashPlate, [125I]-PYY; settings: compound at 10 μM, [125I]-PYY
T6 construct: purchased Perkin Elmer Biosignal
T6 sequence (P25929 1-384): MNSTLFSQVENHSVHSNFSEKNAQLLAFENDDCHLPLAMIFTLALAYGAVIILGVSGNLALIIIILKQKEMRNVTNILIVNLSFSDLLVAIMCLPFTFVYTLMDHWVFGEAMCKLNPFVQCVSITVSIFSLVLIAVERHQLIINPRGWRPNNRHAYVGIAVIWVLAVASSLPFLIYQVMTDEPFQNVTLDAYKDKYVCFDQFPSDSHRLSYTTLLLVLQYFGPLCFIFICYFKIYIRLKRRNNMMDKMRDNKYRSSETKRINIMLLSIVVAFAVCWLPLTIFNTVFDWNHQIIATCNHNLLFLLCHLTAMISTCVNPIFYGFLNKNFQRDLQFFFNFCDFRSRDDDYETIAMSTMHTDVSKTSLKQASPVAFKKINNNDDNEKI
Method in brief: as §2

[7] = target: T7, Human κ-Opioid (KOP) (Homo sapiens, UniProt P41145); experiment: Radioligand binding, human κ-opioid (KOP) membranes, filtration, [3H]-Diprenorphine; settings: compound at 10 μM, [3H]-Diprenorphine
T7 construct: purchased Perkin Elmer Biosignal
T7 sequence (P41145 whole entry): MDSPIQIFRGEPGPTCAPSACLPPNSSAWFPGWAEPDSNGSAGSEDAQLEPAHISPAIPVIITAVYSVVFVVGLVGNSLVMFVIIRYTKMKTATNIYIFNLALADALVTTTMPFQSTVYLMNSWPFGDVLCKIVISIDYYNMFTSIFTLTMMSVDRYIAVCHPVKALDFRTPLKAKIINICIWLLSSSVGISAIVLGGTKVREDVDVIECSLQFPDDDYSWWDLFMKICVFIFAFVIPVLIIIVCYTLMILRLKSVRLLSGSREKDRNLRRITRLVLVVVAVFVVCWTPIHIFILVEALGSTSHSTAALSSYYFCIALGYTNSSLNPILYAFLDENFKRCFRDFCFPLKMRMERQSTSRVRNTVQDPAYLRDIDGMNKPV
Method in brief: as §1

[8] = target: T8, Human Melanocortin (MC4) (Homo sapiens, UniProt P32245); experiment: Radioligand binding, human melanocortin MC4 membranes, FlashPlate, [125I]-NDP-αMSH; settings: compound at 10 μM, [125I]-NDP-αMSH
T8 construct: purchased Perkin Elmer Biosignal
T8 sequence (P32245 whole entry): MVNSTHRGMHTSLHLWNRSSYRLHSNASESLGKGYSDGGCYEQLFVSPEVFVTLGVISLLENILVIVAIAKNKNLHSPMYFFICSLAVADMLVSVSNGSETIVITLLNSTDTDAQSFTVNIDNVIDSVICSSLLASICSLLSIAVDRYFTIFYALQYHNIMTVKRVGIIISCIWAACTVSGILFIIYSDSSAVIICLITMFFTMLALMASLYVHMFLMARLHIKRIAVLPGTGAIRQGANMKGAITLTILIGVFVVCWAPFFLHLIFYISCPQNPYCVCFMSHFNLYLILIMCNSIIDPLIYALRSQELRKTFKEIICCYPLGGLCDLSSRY
Method in brief: as §2

[9] = target: T9, Human δ-opioid (DOP) (Homo sapiens, UniProt P41143); experiment: Radioligand binding, human δ-opioid (DOP) membranes, FlashPlate, [3H]-Bremazocine; settings: compound at 10 μM, [3H]-Bremazocine
T9 construct: purchased Perkin Elmer Biosignal
T9 sequence (P41143 whole entry): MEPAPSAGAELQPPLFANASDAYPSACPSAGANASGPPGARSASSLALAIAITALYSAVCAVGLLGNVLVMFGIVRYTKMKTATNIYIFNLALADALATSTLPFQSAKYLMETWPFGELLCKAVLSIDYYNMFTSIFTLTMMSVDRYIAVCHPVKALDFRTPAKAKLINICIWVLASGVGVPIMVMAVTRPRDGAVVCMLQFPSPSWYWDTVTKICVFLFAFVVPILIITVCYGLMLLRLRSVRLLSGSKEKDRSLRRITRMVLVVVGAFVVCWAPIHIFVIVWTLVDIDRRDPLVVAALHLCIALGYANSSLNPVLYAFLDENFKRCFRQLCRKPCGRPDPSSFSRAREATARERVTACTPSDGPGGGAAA
Method in brief: as §2

[10] = target: T10, Human Melanocortin (MC3) (Homo sapiens, UniProt P41968); experiment: Radioligand binding, human melanocortin MC3 membranes, FlashPlate, [125I]-NDP-αMSH; settings: compound at 10 μM, [125I]-NDP-αMSH
T10 construct: purchased Perkin Elmer Biosignal
T10 sequence (P41968 whole entry): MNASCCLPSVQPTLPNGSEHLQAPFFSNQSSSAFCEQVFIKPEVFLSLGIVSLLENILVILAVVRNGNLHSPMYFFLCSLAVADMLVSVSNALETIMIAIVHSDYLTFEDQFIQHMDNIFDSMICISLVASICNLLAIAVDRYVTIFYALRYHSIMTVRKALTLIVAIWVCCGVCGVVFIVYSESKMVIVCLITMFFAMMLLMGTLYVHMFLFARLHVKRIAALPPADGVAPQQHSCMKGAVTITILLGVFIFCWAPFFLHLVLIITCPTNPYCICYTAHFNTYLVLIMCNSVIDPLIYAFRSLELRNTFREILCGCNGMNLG
Method in brief: as §2

[11] = target: T11, Human μ-opioid (MOP) (Homo sapiens, UniProt P35372); experiment: Radioligand binding, human μ-opioid (MOP) membranes, FlashPlate, [3H]-Naloxone; settings: compound at 10 μM, [3H]-Naloxone
T11 construct: purchased Perkin Elmer Biosignal
T11 sequence (P35372 whole entry): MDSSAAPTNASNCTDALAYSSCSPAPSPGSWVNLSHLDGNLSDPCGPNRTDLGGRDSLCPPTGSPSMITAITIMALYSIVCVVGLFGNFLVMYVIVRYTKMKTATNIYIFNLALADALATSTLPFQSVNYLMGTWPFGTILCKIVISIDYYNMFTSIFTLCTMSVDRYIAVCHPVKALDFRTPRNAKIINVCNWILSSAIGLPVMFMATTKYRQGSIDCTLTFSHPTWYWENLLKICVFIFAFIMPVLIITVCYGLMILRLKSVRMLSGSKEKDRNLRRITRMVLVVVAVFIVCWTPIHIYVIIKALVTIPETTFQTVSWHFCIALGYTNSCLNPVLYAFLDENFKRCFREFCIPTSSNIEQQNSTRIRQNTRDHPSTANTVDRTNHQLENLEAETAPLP
Method in brief: as §2

T1 sequence (P25103 whole entry): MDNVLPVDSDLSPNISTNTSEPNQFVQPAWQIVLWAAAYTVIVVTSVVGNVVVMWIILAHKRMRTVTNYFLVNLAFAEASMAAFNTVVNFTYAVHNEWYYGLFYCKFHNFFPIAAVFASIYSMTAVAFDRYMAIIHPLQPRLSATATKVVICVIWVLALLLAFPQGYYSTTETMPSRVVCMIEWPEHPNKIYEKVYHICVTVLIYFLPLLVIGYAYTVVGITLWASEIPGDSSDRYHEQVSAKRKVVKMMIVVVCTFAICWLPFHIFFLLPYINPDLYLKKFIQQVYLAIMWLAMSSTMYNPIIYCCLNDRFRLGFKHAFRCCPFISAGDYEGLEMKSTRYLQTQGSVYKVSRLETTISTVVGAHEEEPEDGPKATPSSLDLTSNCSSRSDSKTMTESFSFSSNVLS

| SMILES | A8: inhibition of radioligand binding, human neurokinin (NK1) [1] | A6: inhibition of radioligand binding, human melanin-concentrating hormone (MCH1) [2] | A10: inhibition of radioligand binding, human opioid (ORL1) [3] | A11: inhibition of radioligand binding, mouse urotensin (mUR2) [4] | A5: inhibition of radioligand binding, human melanocortin (MC5) [5] | A9: inhibition of radioligand binding, human neuropeptide Y (NPY-Y1) [6] | A2: inhibition of radioligand binding, human κ-opioid (KOP) [7] | A4: inhibition of radioligand binding, human melanocortin (MC4) [8] | A3: inhibition of radioligand binding, human melanocortin (MC3) [10] | A8 radioligand binding, percentage inhibition [1] | A6 radioligand binding, percentage inhibition [2] | A10 radioligand binding, percentage inhibition [3] | A11 radioligand binding, percentage inhibition [4] | A5 radioligand binding, percentage inhibition [5] | A9 radioligand binding, percentage inhibition [6] | A2 radioligand binding, percentage inhibition [7] | A4 radioligand binding, percentage inhibition [8] | A1 radioligand binding, percentage inhibition [9] | A3 radioligand binding, percentage inhibition [10] | A7 radioligand binding, percentage inhibition [11] | other results |
| --- | --- | --- | --- | --- | --- | --- | --- | --- | --- | --- | --- | --- | --- | --- | --- | --- | --- | --- | --- | --- | --- |
| NCCC(=O)NC1C(OCc2ccc(Cl)cc2)OC(COCc2ccc3ccccc3c2)C(O)C1OCc1ccccc1 (single isomer, unassigned) [compound 483] | + (“+” indicates greater than 50% inhibition at 10 μM) | − (“−” indicates less than 50% inhibition at 10 μM) | − (“−” indicates less than 50% inhibition at 10 μM) | − (“−” indicates less than 50% inhibition at 10 μM) | + (“+” indicates greater than 50% inhibition at 10 μM) | − (“−” indicates less than 50% inhibition at 10 μM) | − (“−” indicates less than 50% inhibition at 10 μM) | − (“−” indicates less than 50% inhibition at 10 μM) | − (“−” indicates less than 50% inhibition at 10 μM) |  |  |  |  |  |  |  |  |  |  |  | A1: inhibition of radioligand binding, human δ-opioid (DOP) [9]: − (“−” indicates less than 50% inhibition at 10 μM); A7: inhibition of radioligand binding, human μ-opioid (MOP) [11]: − (“−” indicates less than 50% inhibition at 10 μM) |
| COCC1OC(OCc2ccccc2)C(NC(=O)CCCNC(=N)N)C(OCc2ccc(Cl)cc2)C1O (stereo not shown) [compound 181] |  |  |  |  |  |  |  |  |  | + (“+” indicates greater than 50% inhibition at 10 μM) | + (“+” indicates greater than 50% inhibition at 10 μM) | − (“−” indicates less than 50% inhibition at 10 μM) | − (“−” indicates less than 50% inhibition at 10 μM) | + (“+” indicates greater than 50% inhibition at 10 μM) | − (“−” indicates less than 50% inhibition at 10 μM) | − (“−” indicates less than 50% inhibition at 10 μM) | + (“+” indicates greater than 50% inhibition at 10 μM) | − (“−” indicates less than 50% inhibition at 10 μM) | − (“−” indicates less than 50% inhibition at 10 μM) | − (“−” indicates less than 50% inhibition at 10 μM) |  |
| N=C(N)NCCC(=O)N[C@H]1C(OCc2ccc(Cl)cc2)O[C@H](COCc2ccccc2)[C@@H](O)[C@@H]1OCc1ccc(-c2ccccc2)cc1 (stereo partly shown) [compound 535] | + (“+” indicates greater than 50% inhibition at 10 μM) | + (“+” indicates greater than 50% inhibition at 10 μM) | − (“−” indicates less than 50% inhibition at 10 μM) | − (“−” indicates less than 50% inhibition at 10 μM) | + (“+” indicates greater than 50% inhibition at 10 μM) | − (“−” indicates less than 50% inhibition at 10 μM) | + (“+” indicates greater than 50% inhibition at 10 μM) | + (“+” indicates greater than 50% inhibition at 10 μM) | + (“+” indicates greater than 50% inhibition at 10 μM) |  |  |  |  |  |  |  |  |  |  |  | A1: inhibition of radioligand binding, human δ-opioid (DOP) ([9]; 10 µM): + (“+” indicates greater than 50% inhibition at 10 μM); A7: inhibition of radioligand binding, human μ-opioid (MOP) ([11]; 10 µM): + (“+” indicates greater than 50% inhibition at 10 μM) |
| CSC1O[C@H](COCc2ccc(-c3ccccc3)cc2)[C@@H](O)[C@@H](OCc2ccc(Cl)cc2)[C@H]1NC(=O)CCCNC(=N)N (stereo partly shown) [compound 279] |  |  |  |  |  |  |  |  |  |  |  |  |  |  |  |  |  |  |  |  | A8: inhibition of radioligand binding ([1]; filtration): + (“+” indicates greater than 50% inhibition at 10 μM); A6: inhibition of radioligand binding ([2]; [125I]-S36057, FlashPlate): − (“−” indicates less than 50% inhibition at 10 μM); A10: inhibition of radioligand binding ([3]; FlashPlate): − (“−” indicates less than 50% inhibition at 10 μM); A11: inhibition of radioligand binding ([4]; FlashPlate): − (“−” indicates less than 50% inhibition at 10 μM); A5: inhibition of radioligand binding ([5]; FlashPlate): + (“+” indicates greater than 50% inhibition at 10 μM); A9: inhibition of radioligand binding ([6]; FlashPlate): − (“−” indicates less than 50% inhibition at 10 μM); A2: inhibition of radioligand binding ([7]; filtration): − (“−” indicates less than 50% inhibition at 10 μM); A4: inhibition of radioligand binding ([8]; FlashPlate): − (“−” indicates less than 50% inhibition at 10 μM); A1: inhibition of radioligand binding ([9]; FlashPlate): − (“−” indicates less than 50% inhibition at 10 μM); A3: inhibition of radioligand binding ([10]; FlashPlate): − (“−” indicates less than 50% inhibition at 10 μM); A7: inhibition of radioligand binding ([11]; FlashPlate): − (“−” indicates less than 50% inhibition at 10 μM) |
| CO[C@H]1[C@H](O)[C@@H](COCc2cccc(O)c2)OC(OCc2ccc(-c3ccccc3)cc2)[C@@H]1NC(=O)CCCNC(=N)N (stereo partly shown) [compound 149] |  |  |  |  |  |  |  |  |  | + (“+” indicates greater than 50% inhibition at 10 μM) | − (“−” indicates less than 50% inhibition at 10 μM) | − (“−” indicates less than 50% inhibition at 10 μM) | − (“−” indicates less than 50% inhibition at 10 μM) | − (“−” indicates less than 50% inhibition at 10 μM) | − (“−” indicates less than 50% inhibition at 10 μM) | − (“−” indicates less than 50% inhibition at 10 μM) | − (“−” indicates less than 50% inhibition at 10 μM) | − (“−” indicates less than 50% inhibition at 10 μM) | − (“−” indicates less than 50% inhibition at 10 μM) | + (“+” indicates greater than 50% inhibition at 10 μM) |  |

From patent US20080009418A1, “Selective Inhibitors” (Alchemia LTD., priority 2004, published 2008)
